In ChEMBL document CHEMBL1201862, “PubChem BioAssay data set” (2004):
The source made the active and inactive calls.

Assays:
[1] = target: T1, Caspase-3 (Homo sapiens, UniProt P42574); type: functional;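 also: Dose-response selectivity test against caspase-3 for candidate inhibitors of sentrin-specific proteases (SENPs)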
T1 sequence (P42574 whole entry): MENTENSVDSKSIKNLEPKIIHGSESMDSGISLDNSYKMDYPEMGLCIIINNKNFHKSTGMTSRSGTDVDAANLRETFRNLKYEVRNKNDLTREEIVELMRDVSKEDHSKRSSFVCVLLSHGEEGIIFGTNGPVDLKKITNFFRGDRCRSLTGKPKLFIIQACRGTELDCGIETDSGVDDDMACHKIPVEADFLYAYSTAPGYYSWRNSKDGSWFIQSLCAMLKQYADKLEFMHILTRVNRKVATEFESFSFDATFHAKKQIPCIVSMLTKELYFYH

[2] = target: T2, Sentrin-specific protease 8 (Homo sapiens, UniProt Q96LD8); type: functional;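 also: luminescence read-out of SENP8 inhibition, dose-response confirmation following an ultra-high-throughput screen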
T2 sequence (Q96LD8 whole entry): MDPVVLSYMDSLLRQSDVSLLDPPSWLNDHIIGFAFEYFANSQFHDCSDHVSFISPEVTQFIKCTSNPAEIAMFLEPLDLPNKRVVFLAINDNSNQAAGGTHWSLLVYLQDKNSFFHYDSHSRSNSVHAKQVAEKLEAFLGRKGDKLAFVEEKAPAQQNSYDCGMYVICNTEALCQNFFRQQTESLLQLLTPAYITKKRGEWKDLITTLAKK

[3] = test system: Streptococcus; assay: GAS UMAA2166 growth inhibition – luminescence, BacTiterGlo, counter-screen for streptokinase expression inhibitor project, dose response (AID 1915); type: functional, organism-based;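 also: potency for reduction of bacterial viability or growth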
[4] = target: T3, Protein RecA (Mycobacterium tuberculosis, UniProt P9WHJ3); assay: Fluorescence Cell-Free Homogeneous Dose Retest to Identify Inhibitors of RecA-Intein Splicing Activity. [Related pubchem assays (depositor defined):AID2097, AID2223, AID489010, AID492950]; type: functional
T3 sequence (P9WHJ3 whole entry): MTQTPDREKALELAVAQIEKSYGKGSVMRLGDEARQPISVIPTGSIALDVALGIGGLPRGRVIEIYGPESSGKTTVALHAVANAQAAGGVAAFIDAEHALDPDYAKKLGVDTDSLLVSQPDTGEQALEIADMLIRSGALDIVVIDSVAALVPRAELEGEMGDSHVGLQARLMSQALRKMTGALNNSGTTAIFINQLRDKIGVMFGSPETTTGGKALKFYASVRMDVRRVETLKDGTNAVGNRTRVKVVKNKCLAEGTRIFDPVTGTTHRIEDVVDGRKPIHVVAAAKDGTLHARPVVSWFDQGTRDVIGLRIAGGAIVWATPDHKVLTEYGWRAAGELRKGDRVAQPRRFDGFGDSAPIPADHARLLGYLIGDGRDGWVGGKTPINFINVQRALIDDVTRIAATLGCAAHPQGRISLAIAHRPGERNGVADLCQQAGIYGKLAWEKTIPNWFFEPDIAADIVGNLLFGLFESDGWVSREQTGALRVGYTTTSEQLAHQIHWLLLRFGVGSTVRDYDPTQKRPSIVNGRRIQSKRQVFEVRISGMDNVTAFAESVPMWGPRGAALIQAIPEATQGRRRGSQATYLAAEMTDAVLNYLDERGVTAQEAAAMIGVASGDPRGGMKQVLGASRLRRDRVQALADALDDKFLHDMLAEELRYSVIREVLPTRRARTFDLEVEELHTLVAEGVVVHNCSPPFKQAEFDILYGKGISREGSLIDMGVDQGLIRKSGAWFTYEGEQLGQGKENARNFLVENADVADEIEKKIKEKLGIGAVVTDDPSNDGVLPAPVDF

[5] = target: T4, Replicative DNA helicase DnaB (Mycobacterium tuberculosis, UniProt P9WMR3); assay: DnaB intein splicing inhibitors, dose response, biochemical, cell-free fluorescence (AID 449749); type: functional
T4 sequence (P9WMR3 whole entry): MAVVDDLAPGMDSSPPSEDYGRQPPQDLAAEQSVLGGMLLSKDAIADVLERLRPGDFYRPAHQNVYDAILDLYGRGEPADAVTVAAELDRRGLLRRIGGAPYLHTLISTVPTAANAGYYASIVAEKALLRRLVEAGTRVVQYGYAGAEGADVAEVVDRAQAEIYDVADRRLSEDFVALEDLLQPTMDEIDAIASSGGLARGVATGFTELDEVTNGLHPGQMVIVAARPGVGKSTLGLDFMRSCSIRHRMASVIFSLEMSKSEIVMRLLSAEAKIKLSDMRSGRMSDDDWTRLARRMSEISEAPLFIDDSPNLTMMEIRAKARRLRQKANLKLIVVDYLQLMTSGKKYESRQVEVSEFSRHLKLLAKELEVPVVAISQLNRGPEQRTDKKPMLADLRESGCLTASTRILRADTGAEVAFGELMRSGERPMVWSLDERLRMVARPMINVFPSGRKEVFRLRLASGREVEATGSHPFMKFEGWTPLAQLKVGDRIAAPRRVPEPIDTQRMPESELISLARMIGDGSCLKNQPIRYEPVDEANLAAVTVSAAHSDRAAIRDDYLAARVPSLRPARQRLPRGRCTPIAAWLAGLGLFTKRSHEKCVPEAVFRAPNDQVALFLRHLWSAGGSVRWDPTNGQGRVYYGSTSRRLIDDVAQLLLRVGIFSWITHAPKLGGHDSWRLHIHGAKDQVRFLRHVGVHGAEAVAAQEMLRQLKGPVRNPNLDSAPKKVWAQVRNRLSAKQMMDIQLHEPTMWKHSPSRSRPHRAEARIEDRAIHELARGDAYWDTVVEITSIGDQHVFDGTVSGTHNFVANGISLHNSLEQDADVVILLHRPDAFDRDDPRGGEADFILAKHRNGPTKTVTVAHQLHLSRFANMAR

Compound | IC50 [1] | IC50 [2] | EC50 [3] | EC50 [4] | AC50 [5]
CC(=O)c1cccc2c1N=C(c1[nH]c3ccccc3c1O)C2=O | 11.1 µM (active) | 12.3 µM (active) | > 150 µM (not active) | 2.76 µM (active) | 3.1 µM (active)
CCC1CCCCN1S(=O)(=O)c1ccc(NC(=O)c2nc(S(C)(=O)=O)ncc2Cl)cc1 (stereo not given) | – | – | 13.2 µM (active) | 1.11 µM (active) | 1.43 µM (active)
CCCC[n+]1ccn(C2=C([N-]S(=O)(=O)c3ccc(Cl)cc3)C(=O)c3ccccc3C2=O)c1 | 55.7 µM (active) | 38.2 µM (active) | – | – | –
